Measured values: US10392368B2, “Pyrazolo and triazolo bicyclic compounds as JAK kinase inhibitors” (THERAVANCE BIOPHARMA R&D IP, LLC, priority 2017, dated 2019)
Where two headings read alike, the source gives them in different places.

Columns and labels:
[1] = biological target: T1, JAK1 (Homo sapiens, UniProt P23458); test: Biochemical JAK1 kinase assay (LanthaScreen); conditions: for Ki: read-out: JAK 1 (pKi) (converted)
T1 construct: GST; purchased Life Technologies
Protocol: (§1) A panel of four LanthaScreen JAK biochemical assays (JAK1, 2, 3 and Tyk2) were carried in a common kinase reaction buffer (50 mM HEPES, pH 7.5, 0.01% Brij-35, 10 mM MgCl2, and 1 mM EGTA). Recombinant GST-tagged JAK enzymes and a GFP-tagged STAT1 peptide substrate were obtained from Life Technologies.
(§2) Serially or discretely diluted compounds were pre-incubated with each of the four JAK enzymes and the substrate in white 384-well microplates (Corning) at ambient temperature for 1 h. ATP was subsequently added to initiate the kinase reactions in 10 μL total volume, with 1% DMSO. […] Kinase reactions were allowed to proceed for 1 hour at ambient temperature before a 10 μL preparation of EDTA (10 mM final concentration) and Tb-anti-pSTAT1 (pTyr701) antibody (Life Technologies, 2 nM final concentration) in TR-FRET dilution buffer (Life Technologies) was added. The plates were allowed to incubate at ambient temperature for 1 h before being read on the EnVision reader (Perkin Elmer). Emission ratio signals (520 nm/495 nm) were recorded and utilized to calculate the percent inhibition values based on DMSO and background controls.
(§3) For dose-response analysis, percent inhibition data were plotted vs. compound concentrations, and IC50 values were determined from a 4-parameter robust fit model with the Prism software (GraphPad Software). Results were expressed as pIC50 (negative logarithm of IC50) and subsequently converted to pKi (negative logarithm of dissociation constant, Ki) using the Cheng-Prusoff equation.

[2] = test system: IL-2 stimulated pSTAT5 in Tall-1 T cells; test: Cellular JAK3 potency assay: inhibition of IL-2 stimulated pSTAT5 in Tall-1 T cells; assay type: cell-based, human; conditions: for IC50: Homo sapiens, read-out: Tall-1 (pIC50) (converted)
Protocol: The potency of test compounds for inhibition of interleukin-2 (IL-2) stimulated STAT5 phosphorylation was measured in the Tall-1 human T cell line (DSMZ) using AlphaLisa. Because IL-2 signals through JAK3, this assay provides a measure of JAK3 cellular potency.
Compounds were serially diluted in DMSO and dispensed acoustically to empty wells. Assay media (phenol red-free DMEM (Life Technologies) supplemented with 10% FBS (ATCC)) was dispensed (4 μL/well) and plates shaken at 900 rpm for 10 mins. Cells were seeded at 45,000 cells/well in assay media (4 μL/well), and incubated at 37° C., 5% CO2 for 1 hour, followed by the addition of IL-2 (R&D Systems; final concentration 300 ng/ml) in pre-warmed assay media (4 μL) for 30 minutes. After cytokine stimulation, cells were lysed with 6 ul of 3× AlphaLisa Lysis Buffer (PerkinElmer) containing 1× PhosStop and Complete tablets (Roche). The lysate was shaken at 900 rpm for 10 minutes at room temperature (RT). Phosphorylated STAT5 was measured via the pSTAT5 AlphaLisa kit (PerkinElmer). Freshly prepared acceptor bead mixture was dispensed onto lysate (5 μL) under green filtered <100 lux light. Plates were shaken at 900 rpm for 2 mins, briefly spun down, and incubated for 2 hrs at RT in the dark. Donor beads were dispensed (5 μL) under green filtered <100 lux light. Plates were shaken at 900 rpm for 2 minutes, briefly spun down, and incubated overnight at RT in the dark.
To determine the inhibitory potency of test compounds in response to IL-2, the average emission intensity of beads bound to pSTAT5 was measured in a human T cell line. IC50 values were determined from analysis of the inhibition curves of signal intensity versus compound concentration. Data are expressed as pIC50 (negative decadic logarithm IC50) values (mean±standard deviation).

[3] = biological target: T2, JAK3 (Homo sapiens, UniProt P52333); test: Biochemical JAK3 kinase assay (LanthaScreen); design: GST; purchased Life Technologies; conditions: for Ki: read-out: JAK 3 (pKi) (converted)
T2 sequence (P52333 1-1124): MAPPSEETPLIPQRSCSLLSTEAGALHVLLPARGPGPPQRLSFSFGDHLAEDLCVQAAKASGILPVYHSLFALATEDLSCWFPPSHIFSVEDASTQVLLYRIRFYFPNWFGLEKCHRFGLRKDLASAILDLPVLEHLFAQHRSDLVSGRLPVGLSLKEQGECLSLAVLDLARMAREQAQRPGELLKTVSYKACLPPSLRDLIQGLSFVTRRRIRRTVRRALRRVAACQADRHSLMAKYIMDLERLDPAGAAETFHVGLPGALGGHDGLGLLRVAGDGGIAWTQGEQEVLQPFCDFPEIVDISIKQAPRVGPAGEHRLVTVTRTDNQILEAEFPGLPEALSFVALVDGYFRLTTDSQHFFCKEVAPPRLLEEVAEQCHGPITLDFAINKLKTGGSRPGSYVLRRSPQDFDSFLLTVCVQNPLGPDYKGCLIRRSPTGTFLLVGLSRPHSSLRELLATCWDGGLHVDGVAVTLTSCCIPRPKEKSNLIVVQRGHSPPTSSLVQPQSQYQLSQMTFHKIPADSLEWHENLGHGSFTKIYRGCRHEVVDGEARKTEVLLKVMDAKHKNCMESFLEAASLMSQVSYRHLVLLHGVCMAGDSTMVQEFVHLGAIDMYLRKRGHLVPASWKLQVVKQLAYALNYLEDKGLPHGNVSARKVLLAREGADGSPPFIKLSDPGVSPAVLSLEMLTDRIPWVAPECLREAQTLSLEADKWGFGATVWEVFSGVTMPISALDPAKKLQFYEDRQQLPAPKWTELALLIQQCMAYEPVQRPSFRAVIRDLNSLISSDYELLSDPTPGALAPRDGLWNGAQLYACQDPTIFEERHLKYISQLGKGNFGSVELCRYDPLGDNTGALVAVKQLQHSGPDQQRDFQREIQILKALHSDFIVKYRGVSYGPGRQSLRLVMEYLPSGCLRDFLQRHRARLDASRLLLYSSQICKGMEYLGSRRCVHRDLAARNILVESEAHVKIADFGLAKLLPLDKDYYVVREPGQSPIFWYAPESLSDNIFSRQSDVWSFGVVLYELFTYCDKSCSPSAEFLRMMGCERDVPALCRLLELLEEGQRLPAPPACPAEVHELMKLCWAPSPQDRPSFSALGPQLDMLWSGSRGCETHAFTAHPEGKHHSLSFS
Protocol: as §1, §2, §3

[4] = IL-2 stimulated pSTAT5, Tall-1 T cells
[5] = selectivity JAK3 over JAK1, difference of pKi
[6] = TALL-1, IL-2 stimulated pSTAT5, Tall-1 T cells
[7] = IL-2 stimulated pSTAT5 in Tall-1 T cells
[8] = selectivity: difference of pKi JAK3 and pKi JAK1
[9] = TALL-1, IL-2 stimulated pSTAT5 in Tall-1 T cells

T1 sequence (P23458 whole entry): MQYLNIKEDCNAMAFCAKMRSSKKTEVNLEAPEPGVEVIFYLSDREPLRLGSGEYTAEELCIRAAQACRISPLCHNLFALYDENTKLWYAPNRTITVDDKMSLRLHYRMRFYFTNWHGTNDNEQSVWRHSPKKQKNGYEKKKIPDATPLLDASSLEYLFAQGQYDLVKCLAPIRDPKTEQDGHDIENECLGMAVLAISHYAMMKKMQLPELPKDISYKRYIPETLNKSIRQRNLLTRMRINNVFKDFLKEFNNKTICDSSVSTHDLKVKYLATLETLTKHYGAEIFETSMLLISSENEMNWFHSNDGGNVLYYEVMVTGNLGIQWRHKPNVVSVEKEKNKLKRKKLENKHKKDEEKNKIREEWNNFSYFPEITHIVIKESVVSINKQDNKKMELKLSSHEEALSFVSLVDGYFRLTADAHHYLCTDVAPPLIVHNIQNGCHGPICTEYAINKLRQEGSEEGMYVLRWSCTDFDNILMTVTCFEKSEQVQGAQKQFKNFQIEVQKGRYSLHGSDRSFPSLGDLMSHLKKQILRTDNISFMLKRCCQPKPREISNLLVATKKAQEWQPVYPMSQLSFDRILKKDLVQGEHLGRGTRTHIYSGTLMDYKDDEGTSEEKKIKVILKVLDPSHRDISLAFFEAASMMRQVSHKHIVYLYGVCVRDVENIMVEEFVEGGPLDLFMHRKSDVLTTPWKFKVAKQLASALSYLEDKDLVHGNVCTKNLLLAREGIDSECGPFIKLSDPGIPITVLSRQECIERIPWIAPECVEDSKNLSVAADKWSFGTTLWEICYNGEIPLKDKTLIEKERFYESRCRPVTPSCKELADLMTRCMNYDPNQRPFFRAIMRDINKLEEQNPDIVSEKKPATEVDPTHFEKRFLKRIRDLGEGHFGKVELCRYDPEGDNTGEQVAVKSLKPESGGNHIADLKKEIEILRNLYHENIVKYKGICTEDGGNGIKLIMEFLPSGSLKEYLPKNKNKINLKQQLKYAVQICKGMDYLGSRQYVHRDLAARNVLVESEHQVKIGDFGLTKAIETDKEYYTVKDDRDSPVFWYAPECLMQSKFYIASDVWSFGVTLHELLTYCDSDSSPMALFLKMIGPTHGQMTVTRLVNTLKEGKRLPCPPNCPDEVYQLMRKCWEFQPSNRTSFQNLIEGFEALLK

Compound	JAK 1 (pKi) [1]	Tall-1 (pIC50) [2, 4]	JAK 3 (pKi) [3]	JAK3 (pKi)-JAK1 (pKi) [3, 5]	Ki [1] [nM]	IC50 [2, 6] [nM]	Ki [3] [nM]	Tall-1 (pIC50) [2, 7]	JAK3 (pKi)-JAK1 (pKi) [3, 8]	IC50 [2, 9] [nM]
C=CC(=O)N1CCO[C@H](C(=O)Nc2cc(-c3ccc(O)cc3)cc3[nH]ncc23)C1 [Compound 11-1]	E (a pKi value of 7 or below (Ki of 100 nM or above))	A (a pIC50 value≥7.5 (IC50≤32 nM))	B (a pKi value between 9 and 10 (Ki between 1 nM and 0.1 nM))	A (a value of 3 or above)						
C=CC(=O)N1CC[C@@H](Nc2cc(-c3ccc(O)cc3)cc3[nH]ncc23)C1 [Compound 12-18]				B (a value of 2.3 to 3)	10 to 100	31.6 to 200	< 0.1			
CN(C)C/C=C/C(=O)N1CCC(COc2nc(-c3ccc(O)c(F)c3)cc3[nH]ncc23)CC1 [Compound 14-11]	D (a pKi value between 7 and 8 (Ki between 100 nM and 10 nM))	C (a pIC50 value between 6 and 6.7 (IC50 between 1 μM and 200 nM))	B (a pKi value between 9 and 10 (Ki between 1 nM and 0.1 nM))	B (a value of 2.3 to 3)						
C=CC(=O)N1CC(CC)(COc2cc(-c3ccc(O)c(F)c3)cc3[nH]ncc23)C1 [Compound 3-18]	E (a pKi value of 7 or below (Ki of 100 nM or above))		A (a pKi value≥10 (Ki≤0.1 nM))					B (a pIC50 value between 6.7 (included) and 7.5 (IC50 between 200 nM and 32 nM))	A (a value of 3 or above)	
C=CC(=O)N1CC[C@H](Oc2cc(-c3ccc(O)cc3)cc3[nH]nc(C(F)(F)F)c23)C1 [Compound 1-43]					> 100		< 0.1		A (a value of 3 or above)	< 31.6
C=CC(=O)N1CC2(CC(Oc3cc(-c4ccc(O)cc4)nc4[nH]ncc34)C2)C1 [Compound 15-8]	D (a pKi value between 7 and 8 (Ki between 100 nM and 10 nM))	B (a pIC50 value between 6.7 (included) and 7.5 (IC50 between 200 nM and 32 nM))	B (a pKi value between 9 and 10 (Ki between 1 nM and 0.1 nM))	B (a value of 2.3 to 3)						
C=CC(=O)N1CCC(COc2nc(-c3ccc(O)c(Cl)c3)cc3[nH]ncc23)CC1 [Compound 14-7]	D (a pKi value between 7 and 8 (Ki between 100 nM and 10 nM))	A (a pIC50 value≥7.5 (IC50≤32 nM))	A (a pKi value≥10 (Ki≤0.1 nM))	B (a value of 2.3 to 3)						
C=CC(=O)N1CC(C)(COc2cc(-c3ccc(O)c(Cl)c3)cc3[nH]ncc23)C1 [Compound 3-10]	E (a pKi value of 7 or below (Ki of 100 nM or above))		B (a pKi value between 9 and 10 (Ki between 1 nM and 0.1 nM))					A (a pIC50 value≥7.5 (IC50≤32 nM))	A (a value of 3 or above)	
CN(C)C/C=C/C(=O)N1CCC(Sc2cc(-c3ccc(O)cc3)cc3[nH]ncc23)CC1 [Compound 12-5]				B (a value of 2.3 to 3)	> 100	31.6 to 200	0.1 to 1			
CN(C)C/C=C/C(=O)N1CC(COc2cc(-c3c(F)cc(O)cc3F)cc3[nH]ncc23)C1 [Compound 18-2]				C (a value of 1.8 to 2.3)	10 to 100	< 31.6	< 0.1			
Cc1n[nH]c2cc(-c3ccc(O)cc3)cc(OCC3CN(C(=O)/C=C/CN(C)C)C3)c12 [Compound 18-4]				B (a value of 2.3 to 3)	10 to 100	31.6 to 200	< 0.1			
CN(C)C/C=C/C(=O)N1CCC(Oc2cc(-c3ccc(O)c(Cl)c3)cc3[nH]ncc23)CC1 [Compound 6-19]				B (a value of 2.3 to 3)	10 to 100	31.6 to 200	0.1 to 1			
C=CC(=O)N1C[C@@H](Oc2cc(-c3ccc(O)cc3)cc3[nH]ncc23)C[C@@H]1C [Compound 1-12]					> 100		0.1 to 1		A (a value of 3 or above)	31.6 to 200
C=CC(=O)N1CC[C@H](Oc2cc(-c3ccc(O)cc3)cc3[nH]nc(SC)c23)C1 [Compound 1-39]					> 100		0.1 to 1		A (a value of 3 or above)	31.6 to 200
CN(C)CC=CC(=O)N1C2CCC1CC(Oc1cc(-c3ccc(O)c(F)c3)cc3[nH]ncc13)C2 (stereo not shown) [Compound 9-5]	D (a pKi value between 7 and 8 (Ki between 100 nM and 10 nM))	C (a pIC50 value between 6 and 6.7 (IC50 between 1 μM and 200 nM))	B (a pKi value between 9 and 10 (Ki between 1 nM and 0.1 nM))	C (a value of 1.8 to 2.3)						
C=CC(=O)N1CC(CNc2cc(-c3ccc(O)cc3)cc3[nH]ncc23)C1 [Compound 4-3]	E (a pKi value of 7 or below (Ki of 100 nM or above))		B (a pKi value between 9 and 10 (Ki between 1 nM and 0.1 nM))					B (a pIC50 value between 6.7 (included) and 7.5 (IC50 between 200 nM and 32 nM))	B (a value of 2.3 to 3)	
